Experimental data taken from US12606561B2, “Substituted pyrazolo[1,5-a][1,3,5]triazines as CDK inhibitors” (QURIENT CO., LTD., priority 2018, dated 2026).

Tests used:
CDK1/Cyclin B = biological target: T1, CDK1/Cyclin B (Homo sapiens, UniProt P06493); assay: Enzymatic assay for CDK1 (LANCE Ultra kinase assay, FRET based); type: biochemical; details: ATP at Km; read-out: CDK1 enzymatic activity IC50
T1 construct: purchased Invitrogen PR4768C
Summary of the method: (§1)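 With ATP set at its Km, compounds were tested against purified CDK/cyclin complexes phosphorylating a ULight-labeled peptide. Signal came from FRET between the peptide and a Europium-labeled anti-phospho-antibody.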

CDK2/Cyclin A = biological target: T2, CDK2/Cyclin A (Homo sapiens, UniProt P24941); assay: Enzymatic assay for CDK2 (LANCE Ultra kinase assay, FRET based); type: biochemical; details: ATP at Km
T2 construct: purchased Invitrogen PV6290
Summary of the method: (§2)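 Compounds tested as 8 doses in 4-fold steps against CDK2/Cyclin A ([…]) or CDK5/p25 ([…]), with ATP at its Km and 68 nM ULight-MBP substrate. After 60 min at 23° C., EDTA plus Eu-labelled anti-phospho-MBP added; TR-FRET (615/665 nm) read after another 60 min.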

CDK5/p25 = biological target: T3, CDK5/p25 (Homo sapiens, UniProt Q00535); assay: Enzymatic assay for CDK5 (LANCE Ultra kinase assay, FRET based); type: biochemical; details: ATP at Km
T3 construct: purchased Invitrogen PR8543B
Summary of the method: as §2

CDK7/Cyclin H/MNAT1 = biological target: T4, CDK7/Cyclin H/MNAT1 (Homo sapiens, UniProt P50613); assay: Enzymatic assay for CDK7 (LANCE Ultra kinase assay, FRET based); type: biochemical; details: for IC50: ATP at Km
T4 construct: purchased Invitrogen PR6749B
Summary of the method: as §1

A2780 = A2780 viability assay (CellTiter-Glo, 72 hours); type: cell-based; details: Homo sapiens; A2780 cells
Summary of the method: (§3)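 After a 24 h attachment period, cells received a 0.0015–10 uM compound titration and were incubated 72 h at 37° C, 5% CO2. Viability came from CellTiter-Glo luminescence measured in duplicate.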

OVCAR-3 = OVCAR-3 viability assay (CellTiter-Glo, 72 hours); type: cell-based; details: Homo sapiens; OVCAR-3 cells
Summary of the method: as §3

T3 sequence (Q00535 whole entry): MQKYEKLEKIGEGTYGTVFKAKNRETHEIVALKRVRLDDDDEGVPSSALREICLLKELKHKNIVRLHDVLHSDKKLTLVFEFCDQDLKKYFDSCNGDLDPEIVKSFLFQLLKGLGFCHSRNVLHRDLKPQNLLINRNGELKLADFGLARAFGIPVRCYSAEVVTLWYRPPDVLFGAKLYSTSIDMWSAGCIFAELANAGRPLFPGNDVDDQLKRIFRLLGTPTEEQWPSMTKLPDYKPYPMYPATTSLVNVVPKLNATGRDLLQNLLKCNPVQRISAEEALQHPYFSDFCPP
T3 sequence (Q15078 99-307 partner limits assumed): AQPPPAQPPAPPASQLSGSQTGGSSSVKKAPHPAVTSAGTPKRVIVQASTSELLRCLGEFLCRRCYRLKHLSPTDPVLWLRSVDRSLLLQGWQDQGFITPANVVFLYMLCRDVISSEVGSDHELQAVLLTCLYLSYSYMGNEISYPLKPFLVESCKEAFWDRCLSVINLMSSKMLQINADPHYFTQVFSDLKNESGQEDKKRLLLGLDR
T4 sequence (P50613 whole entry): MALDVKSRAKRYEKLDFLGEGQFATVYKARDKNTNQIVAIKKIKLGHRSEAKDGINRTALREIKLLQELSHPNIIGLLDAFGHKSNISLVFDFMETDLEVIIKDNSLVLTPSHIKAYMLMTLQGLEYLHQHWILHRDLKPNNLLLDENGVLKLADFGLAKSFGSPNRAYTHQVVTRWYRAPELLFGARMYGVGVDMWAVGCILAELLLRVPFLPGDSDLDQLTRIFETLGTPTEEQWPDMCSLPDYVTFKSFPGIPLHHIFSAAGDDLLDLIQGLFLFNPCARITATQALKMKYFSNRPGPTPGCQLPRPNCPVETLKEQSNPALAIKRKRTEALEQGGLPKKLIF
T4 sequence (P51946 whole entry partner): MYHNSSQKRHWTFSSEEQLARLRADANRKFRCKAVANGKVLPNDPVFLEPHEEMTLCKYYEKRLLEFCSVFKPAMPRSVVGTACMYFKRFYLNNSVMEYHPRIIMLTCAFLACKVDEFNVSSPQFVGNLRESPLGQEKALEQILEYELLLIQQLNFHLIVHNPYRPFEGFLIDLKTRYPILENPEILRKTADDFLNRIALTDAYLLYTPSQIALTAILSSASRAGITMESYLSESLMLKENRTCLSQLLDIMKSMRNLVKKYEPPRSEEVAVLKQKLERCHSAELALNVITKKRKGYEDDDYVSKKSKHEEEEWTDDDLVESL
T4 sequence (P51948 whole entry partner): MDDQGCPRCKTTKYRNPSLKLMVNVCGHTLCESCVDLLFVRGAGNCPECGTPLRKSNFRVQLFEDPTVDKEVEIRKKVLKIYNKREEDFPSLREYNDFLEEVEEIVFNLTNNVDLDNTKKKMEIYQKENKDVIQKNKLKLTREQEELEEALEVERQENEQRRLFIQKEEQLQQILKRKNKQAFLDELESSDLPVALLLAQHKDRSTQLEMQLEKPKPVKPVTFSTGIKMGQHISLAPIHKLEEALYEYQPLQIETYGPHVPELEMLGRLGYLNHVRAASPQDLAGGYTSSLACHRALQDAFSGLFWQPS
T1 sequence (P06493 whole entry): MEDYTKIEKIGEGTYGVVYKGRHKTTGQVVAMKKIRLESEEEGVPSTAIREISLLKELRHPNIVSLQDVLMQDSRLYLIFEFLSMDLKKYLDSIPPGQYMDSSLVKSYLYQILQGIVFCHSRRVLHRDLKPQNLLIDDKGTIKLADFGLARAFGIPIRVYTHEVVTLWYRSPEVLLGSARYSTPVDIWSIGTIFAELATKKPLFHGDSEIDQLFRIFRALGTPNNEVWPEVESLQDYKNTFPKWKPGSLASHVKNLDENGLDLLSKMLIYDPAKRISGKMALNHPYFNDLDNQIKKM
T1 sequence (P14635 whole entry partner): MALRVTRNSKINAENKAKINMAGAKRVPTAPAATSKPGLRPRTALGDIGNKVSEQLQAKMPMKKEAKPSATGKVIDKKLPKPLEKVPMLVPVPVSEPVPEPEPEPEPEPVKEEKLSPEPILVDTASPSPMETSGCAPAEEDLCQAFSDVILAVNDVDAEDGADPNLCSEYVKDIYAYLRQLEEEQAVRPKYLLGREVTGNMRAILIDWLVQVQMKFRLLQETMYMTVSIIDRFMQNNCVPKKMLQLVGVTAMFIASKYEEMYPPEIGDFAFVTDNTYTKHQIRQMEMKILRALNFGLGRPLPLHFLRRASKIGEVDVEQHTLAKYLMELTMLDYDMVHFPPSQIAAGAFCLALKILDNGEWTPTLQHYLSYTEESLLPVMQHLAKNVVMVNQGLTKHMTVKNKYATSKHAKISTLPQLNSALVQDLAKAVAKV

SMILES	IC50 (CDK1/Cyclin B)	IC50 (CDK2/Cyclin A)	IC50 (CDK5/p25)	IC50 (CDK7/Cyclin H/MNAT1)	CDK1/CDK7: Selectivity of CDK7 inhibition over CDK1 inhibition (CDK7/Cyclin H/MNAT1)	CDK2/CDK7: Selectivity of CDK7 inhibition over CDK2 inhibition (CDK7/Cyclin H/MNAT1)	CDK5/CDK7: Selectivity of CDK7 inhibition over CDK5 inhibition (CDK7/Cyclin H/MNAT1)	IC50 (A2780)	IC50 (OVCAR-3)
C=C(F)C(=O)Nc1ccc2c(-c3ccccc3CNc3nc(N[C@@H]4CC[C@@H](C)NC4)nc4c(C(C)C)cnn34)nccc2c1 [Compound 163]	> 1000 nM	> 1000 nM	> 1000 nM	< 100 nM	A (A indicates [fold] > 500)	A (A indicates [fold] > 500)	A (A indicates [fold] > 500)	< 1000 nM	< 1000 nM
C=C(F)C(=O)Nc1ccc2c(-c3ccccc3CNc3nc(NC[C@H]4CCN(C)C[C@@H]4O)nc4c(C(C)C)cnn34)nccc2c1 [Compound 164]	> 1000 nM	> 1000 nM	> 1000 nM	< 100 nM	A (A indicates [fold] > 500)	A (A indicates [fold] > 500)	A (A indicates [fold] > 500)	< 1000 nM	< 1000 nM
C=C(F)C(=O)Nc1ccc2c(-c3ccccc3CNc3nc(N4CO[C@H]5CN(C)CC[C@@H]5C4)nc4c(C(C)C)cnn34)nccc2c1 [Compound 165]	> 1000 nM	> 1000 nM	> 1000 nM	100 to 1000 nM	B (B indicates 50 < [fold] ≤ 500)	B (B indicates 50 < [fold] ≤ 500)	B (B indicates 50 < [fold] ≤ 500)	< 1000 nM	< 1000 nM
C=C(F)C(=O)Nc1ccc2c(-c3ccccc3CNc3nc(N[C@@H]4CCCNC4)nc4c(C(C)C)cnn34)nccc2c1 [Compound 166]	> 1000 nM	> 1000 nM	> 1000 nM	< 100 nM	A (A indicates [fold] > 500)	A (A indicates [fold] > 500)	A (A indicates [fold] > 500)	< 1000 nM	> 10000 nM
Cc1nc(NCc2ccccc2-c2nccc3cc(NC(=O)/C=C/CN(C)C)ccc23)n2ncc(C(C)C)c2n1 [Compound 167]	> 1000 nM	> 1000 nM	> 1000 nM	100 to 1000 nM	B (B indicates 50 < [fold] ≤ 500)	B (B indicates 50 < [fold] ≤ 500)	B (B indicates 50 < [fold] ≤ 500)	< 1000 nM	< 1000 nM
C=C(F)C(=O)Nc1ccc2c(-c3ccccc3CNc3nc(NC[C@H]4CCN(C(C)C)C[C@@H]4O)nc4c(C(C)C)cnn34)nccc2c1 [Compound 168]	> 1000 nM	> 1000 nM	> 1000 nM	< 100 nM	B (B indicates 50 < [fold] ≤ 500)	B (B indicates 50 < [fold] ≤ 500)	B (B indicates 50 < [fold] ≤ 500)	< 1000 nM	< 1000 nM
C=C(F)C(=O)Nc1ccc2c(-c3ccccc3CNc3nc(NC[C@H]4CCN(CC)C[C@@H]4O)nc4c(C(C)C)cnn34)nccc2c1 [Compound 169]	> 1000 nM	> 1000 nM	> 1000 nM	< 100 nM	B (B indicates 50 < [fold] ≤ 500)	B (B indicates 50 < [fold] ≤ 500)	B (B indicates 50 < [fold] ≤ 500)	< 1000 nM	< 1000 nM
C=C(F)C(=O)Nc1ccc2c(-c3ccccc3CNc3nc(N4CCc5ncccc5C4)nc4c(C(C)C)cnn34)nccc2c1 [Compound 170]	> 1000 nM	> 1000 nM	> 1000 nM	100 to 1000 nM	B (B indicates 50 < [fold] ≤ 500)	B (B indicates 50 < [fold] ≤ 500)	B (B indicates 50 < [fold] ≤ 500)	< 1000 nM	1000 to 10000 nM
C=C(F)C(=O)Nc1ccc2c(-c3ccccc3CNc3nc(N[C@H]4CCC(C)(C)NC4)nc4c(C(C)C)cnn34)nccc2c1 [Compound 171]	> 1000 nM	> 1000 nM	> 1000 nM	< 100 nM	A (A indicates [fold] > 500)	A (A indicates [fold] > 500)	A (A indicates [fold] > 500)	< 1000 nM	< 1000 nM
C=C(F)C(=O)Nc1ccc2c(-c3ccccc3CNc3nc(NC4CCCNC4)nc4c(C(C)C)cnn34)nccc2c1 (stereo not drawn) [Compound 172]	> 1000 nM	> 1000 nM	> 1000 nM	< 100 nM	A (A indicates [fold] > 500)	A (A indicates [fold] > 500)	A (A indicates [fold] > 500)	< 1000 nM	< 1000 nM

Now from value to compound:

IC50 (CDK1/Cyclin B)	IC50 (CDK2/Cyclin A)	IC50 (CDK5/p25)	IC50 (CDK7/Cyclin H/MNAT1)	CDK1/CDK7: Selectivity of CDK7 inhibition over CDK1 inhibition (CDK7/Cyclin H/MNAT1)	CDK2/CDK7: Selectivity of CDK7 inhibition over CDK2 inhibition (CDK7/Cyclin H/MNAT1)	CDK5/CDK7: Selectivity of CDK7 inhibition over CDK5 inhibition (CDK7/Cyclin H/MNAT1)	IC50 (A2780)	IC50 (OVCAR-3)	SMILES
> 1000 nM	> 1000 nM	> 1000 nM	100 to 1000 nM	B (B indicates 50 < [fold] ≤ 500)	B (B indicates 50 < [fold] ≤ 500)	B (B indicates 50 < [fold] ≤ 500)	< 1000 nM	1000 to 10000 nM	C=C(F)C(=O)Nc1ccc2c(-c3ccccc3CNc3cc(C)nc4c(C(C)C)cnn34)nccc2c1 [Compound 156]
> 1000 nM	> 1000 nM	> 1000 nM	< 100 nM	B (B indicates 50 < [fold] ≤ 500)	B (B indicates 50 < [fold] ≤ 500)	B (B indicates 50 < [fold] ≤ 500)	< 1000 nM	1000 to 10000 nM	C=C(F)C(=O)Nc1ccc2c(-c3ccccc3CNc3nc(NC[C@@H]4CCNC[C@H]4O)nc4c(C(C)C)cnn34)nccc2c1 [Compound 157]
> 1000 nM	> 1000 nM	> 1000 nM	< 100 nM	A (A indicates [fold] > 500)	A (A indicates [fold] > 500)	A (A indicates [fold] > 500)	< 1000 nM	< 1000 nM	C=C(F)C(=O)Nc1ccc2c(-c3ccccc3CNc3nc(NC[C@H]4CCNC[C@H]4O)nc4c(C(C)C)cnn34)nccc2c1 [Compound 158]
> 1000 nM	> 1000 nM	> 1000 nM	100 to 1000 nM	B (B indicates 50 < [fold] ≤ 500)	B (B indicates 50 < [fold] ≤ 500)	B (B indicates 50 < [fold] ≤ 500)	< 1000 nM	1000 to 10000 nM	C=C(F)C(=O)Nc1ccc2c(-c3ccccc3CNc3nc(O[C@H]4CCCNC4)nc4c(C(C)C)cnn34)nccc2c1 [Compound 159]
> 1000 nM	> 1000 nM	> 1000 nM	< 100 nM	A (A indicates [fold] > 500)	A (A indicates [fold] > 500)	A (A indicates [fold] > 500)	< 1000 nM	< 1000 nM	C=C(F)C(=O)Nc1ccc2c(-c3ccccc3CNc3nc(NCC4CCNCC4O)nc4c(C(C)C)cnn34)nccc2c1 (stereo not drawn) [Compound 160]
> 1000 nM	> 1000 nM	> 1000 nM	< 100 nM	A (A indicates [fold] > 500)	A (A indicates [fold] > 500)	A (A indicates [fold] > 500)	< 1000 nM	< 1000 nM	C=C(F)C(=O)Nc1ccc2c(-c3ccccc3CNc3nc(N[C@H]4CCCNC4)nc4c(C(C)C)cnn34)nccc2c1 [Compound 161]
> 1000 nM	> 1000 nM	> 1000 nM	< 100 nM	A (A indicates [fold] > 500)	A (A indicates [fold] > 500)	A (A indicates [fold] > 500)	< 1000 nM	1000 to 10000 nM	C=C(F)C(=O)Nc1ccc2c(-c3ccccc3CNc3nc(NC[C@@H]4CCNC[C@@H]4O)nc4c(C(C)C)cnn34)nccc2c1 [Compound 162]
